{"source": "patent US20200037638A1", "about": "“FORMULATIONS” (Molecular Infusions, LLC., priority 2017, published 2020)", "origin": "cited, not measured here", "data": [{"smiles": "CCCCCc1cc(O)c2c(c1)OC(C)(C)[C@@H]1CCC(C)=C[C@@H]21", "note": "[dronabinol, Δ9-tetrahydrocannabinol]", "values": [{"measurement": "Duration of appetite stimulant effect", "setting": "after administration", "result": "≥ 24", "unit": "h"}, {"measurement": "Duration of action for psychoactive effects", "setting": "after oral administration", "result": "4 to 6", "unit": "h"}, {"measurement": "Onset of action", "setting": "after oral administration", "result": "0.5 to 1", "unit": "h"}, {"measurement": "Peak effect (time)", "setting": "after oral administration", "result": "2 to 4", "unit": "h"}, {"measurement": "Absorbed", "setting": "after single oral doses", "result": "90 to 95", "unit": "%"}, {"measurement": "Administered dose reaching the systemic circulation", "setting": "oral, first pass hepatic metabolism and high lipid solubility", "result": "10 to 20", "unit": "%"}]}]}
